# Reference: patent US20250066290A1, “DHODH INHIBITORS CONTAINING A CARBOXYLIC ACID BIOISOSTERE” (IMMUNIC AG, priority 2021, published 2025)
# Like-named read-outs stand apart in the source and are kept apart here.
# Assays:
# SARS-CoV-2 = SARS-CoV-2 viral replication (YFP) assay; format: cell-based; settings: Severe acute respiratory syndrome coronavirus 2, read-out: EC50 range
# [1] = target: N-terminally truncated recombinant hDHODH enzyme (Homo sapiens, UniProt Q02127); assay: biochemical; format: biochemical
# N-terminally truncated recombinant hDHODH enzyme, sequence (Q02127 whole entry, looked up, the tested form may be a part): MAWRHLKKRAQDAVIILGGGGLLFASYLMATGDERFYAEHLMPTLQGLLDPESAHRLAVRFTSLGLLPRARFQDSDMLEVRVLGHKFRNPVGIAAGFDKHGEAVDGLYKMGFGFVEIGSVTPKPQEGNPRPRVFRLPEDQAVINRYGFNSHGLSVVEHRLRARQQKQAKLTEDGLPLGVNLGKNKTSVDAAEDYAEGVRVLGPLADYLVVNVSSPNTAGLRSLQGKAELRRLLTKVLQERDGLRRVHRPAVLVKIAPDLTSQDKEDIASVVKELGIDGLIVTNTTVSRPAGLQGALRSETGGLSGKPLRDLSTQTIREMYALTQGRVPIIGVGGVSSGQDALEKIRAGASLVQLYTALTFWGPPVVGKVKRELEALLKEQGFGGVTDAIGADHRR
# Procedure: Briefly, the hDHODH concentration was adjusted in a way that an average slope of approximately 0.2 AU/min served as the positive control (e.g. without inhibitor). The standard assay mixture contained 60 μM 2,6-dichloroindophenol, 50 μM decylubiquinone and 100 μM dihydroorotate. The hDHODH enzyme with or without at least six different concentrations of the compounds was added and measurements were performed in 50 mM TrisHCl, 150 mM KCl and 0.1% Triton X-100 at pH 8.0 and at 30° C. The reaction was started by adding dihydroorotate and measuring the absorption at 600 nm for 2 min. For the determination of the IC50 values, each data point was recorded in triplicate. […].
# [2] = human DHODH assay, read-out: IC50 range
SMILES,EC50 (SARS-CoV-2) [µM],"IC50 [1, 2] [nM]",IC50 [1] [nM],"IC50 ([1]; matched pair comparison, read-out: DHODH IC50) [nM]"
[2H]C([2H])([2H])Oc1cccc(-c2ccc(NC(=O)C3=C(C(=O)NOC)CCC3)c3ccccc23)c1 [4/12],< 10,> 10000,–,–
"[2H]C([2H])([2H])Oc1cccc(-c2cc(F)c(N(CC(=O)OC)C(=O)C3=C(C(=O)NOC)CCC3)c(F)c2)c1 [Example 14, Methyl N-(3,5-difluoro-3′-(methoxy-d3)-[1,1′-biphenyl]-4-yl)-N-(2-(methoxy-carbamoyl)cyclopent-1-ene-1-carbonyl)glycinate]",–,–,1000 to 10000,–
[2H]C([2H])([2H])Oc1cccc(-c2c(F)c(F)c(NC(=O)c3occc3C(=O)NOC)c(F)c2F)c1 [9/8],< 1,< 100,–,–
[2H]C([2H])([2H])Oc1cccc(-c2c(F)c(F)c(NC(=O)C3=C(C(=O)NOC)CSC3)c(F)c2F)c1 [Example 6/1],< 1,< 100,–,–
[2H]C([2H])([2H])Oc1cccc(-c2cc(F)c(NC(=O)C3=C(C(=O)NOCC#N)CCC3)c(F)c2)c1 [Example 4/3],10 to 25,–,1000 to 10000,–
[2H]C([2H])([2H])Oc1cccc(C23CCC(NC(=O)C4=C(C(=O)NOC)CCC4)(CC2)CC3)c1 [4/24],–,> 10000,–,–
CONC(=O)C1=C(C(=O)Nc2c(F)cc(-c3cccc4ocnc34)cc2F)CCC1 [4/14],< 10,–,1000 to 10000,–
"[2H]C([2H])([2H])Oc1cccc(-c2cc(F)c(N(CCO)C(=O)C3=C(C(=O)NOC)CCC3)c(F)c2)c1 [Example 15, N1-(3,5-Difluoro-3′-(methoxy-d3)-[1,1′-biphenyl]-4-yl)-N1-(2-hydroxyethyl)-N2-methoxy-cyclopent-1-ene-1,2-dicarboxamide]",–,> 10000,–,–
"[2H]C([2H])([2H])Oc1cccc(-c2c(F)c(F)c(NC(=O)c3cc(C)sc3C(=O)NOC)c(F)c2F)c1 [Example 17-1, N2-Methoxy-5-methyl-N3-(2,3,5,6-tetrafluoro-3′-(methoxy-d3)-[1,1′-biphenyl]-4-yl)thiophene-2,3-dicarboxamide]",< 1,–,< 100,–
[2H]C([2H])([2H])Oc1cccc(-c2cc(F)c(NC(=O)C3=C(C(=O)NC#N)CCC3)c(F)c2)c1 [4/15],10 to 25,–,–,–
[2H]C([2H])([2H])Oc1cccc(-c2c(F)c(F)c(NC(=O)C3=C(C(=O)NS(N)(=O)=O)CC(F)(F)C3)c(F)c2F)c1 [2/5],< 1,< 100,–,–
[2H]C([2H])([2H])Oc1cccc(-c2c(F)c(F)c(NC(=O)c3cc(F)sc3C(=O)NOC)c(F)c2F)c1 [16/2],–,< 100,–,–
[2H]C([2H])([2H])Oc1cccc(-c2cc(F)c(NC(=O)C3=C(C(=O)NS(=O)(=O)C(F)F)CCC3)c(F)c2)c1 [1/3],25 to 50,–,1000 to 10000,–
[2H]C([2H])([2H])Oc1cccc(-c2cc(F)c(NC(=O)C3=C(C(=O)NS(=O)(=O)NC)CCC3)c(F)c2)c1 [2/3],10 to 25,–,100 to 1000,–
[2H]C([2H])([2H])Oc1cccc(-c2cc(F)c(NC(=O)C3=C(C(=O)NS(=O)(=O)N(C)C)CCC3)c(F)c2)c1 [2/2],10 to 25,> 10000,–,–
"[2H]C([2H])([2H])Oc1cccc(-c2cnc(NC(=O)C3=C(C(=O)NOC)CCC3)c(F)c2)c1 [Example 8, N^1-(3-Fluoro-5-(3-(methoxy-d3)phenyl)pyridin-2-yl)-N^2-methoxycyclopent-1-ene-1,2-dicarboxamide]",> 50,–,1000 to 10000,–
[2H]C([2H])([2H])Oc1cccc(-c2c(F)cc(NC(=O)c3ccsc3C(=O)NOC)cc2F)c1 [9/3],< 1,< 100,–,–
[2H]C([2H])([2H])ONC(=O)C1=C(C(=O)Nc2c(F)c(F)c(-c3cccc(OC([2H])(C([2H])([2H])[2H])C([2H])([2H])[2H])c3)c(F)c2F)COC1 [5/15],–,< 100,–,–
[2H]C([2H])([2H])Oc1cccc(-c2c(F)c(F)c(NC(=O)C3=C(C(=O)NS(C)(=O)=O)CC(F)(F)C3)c(F)c2F)c1 [1/12],< 1,< 100,–,–
[2H]c1c([2H])c(-c2cccc(OC([2H])([2H])[2H])c2)c([2H])c(C([2H])([2H])[2H])c1NC(=O)C1=C(C(=O)NS(C)(=O)=O)CCC1 [1/8],–,–,1000 to 10000,–
[2H]C([2H])([2H])Oc1cccc(-c2c(F)c(F)c(NC(=O)C3=C(C(=O)NS(C)(=O)=O)COC3)c(F)c2F)c1 [1/10],–,–,100 to 1000,–
[2H]C([2H])([2H])Oc1cccc(-c2cc(F)c(NC(=O)C3=C(C(=O)NOCCO)CCC3)c(F)c2)c1 [Example 4/1],< 10,–,1000 to 10000,–
CONC(=O)C1=C(C(=O)Nc2ccc(-c3cccc(OC)c3)cc2F)CCC1 [Example 4/33],–,–,1000 to 10000,2020

SMILES,EC50 (SARS-CoV-2) [µM],"IC50 [1, 2] [nM]",IC50 [1] [nM],"IC50 ([1]; matched pair comparison, read-out: DHODH IC50) [nM]"
[2H]C([2H])([2H])Oc1cccc(-c2c(F)c(F)c(NC(=O)c3cocc3C(=O)NOC)c(F)c2F)c1 [Example 16/1],< 1,< 100,–,–
[2H]c1c([2H])c([2H])c(-c2c(F)c(F)c(NC(=O)C3=C(C(=O)NOC([2H])([2H])[2H])COC3)c(F)c2F)c([2H])c1[2H] [Example 5/1],< 1,< 100,–,–
[2H]C([2H])([2H])Oc1cccc(-c2ccc(NC(=O)c3ccsc3C(=O)NOC)c(F)c2F)c1 [9/4],< 1,< 100,–,–
[2H]C([2H])([2H])Oc1cccc(-c2c(F)c(F)c(NC(=O)C3=C(C(=O)NOCCO)CSC3)c(F)c2F)c1 [6/2],< 10,< 100,–,–
[2H]C([2H])([2H])Oc1cccc(-c2ccc(NC(=O)C3=C(C(=O)NOC)CCC3)c(F)c2)c1 [5/8],–,–,1000 to 10000,–
[2H]C([2H])([2H])Oc1cccc(-c2c(F)c(F)c(NC(=O)c3cscc3C(=O)NS(N)(=O)=O)c(F)c2F)c1 [2/6],< 10,< 100,–,–
[2H]C([2H])([2H])Oc1cccc(-c2c(F)c(F)c(NC(=O)C3=C(C(=O)NOCCO)CC(F)(F)C3)c(F)c2F)c1 [4/29],< 1,< 100,–,–
[2H]C([2H])([2H])Oc1cccc(-c2c(F)c(F)c(NC(=O)C3=C(C(=O)NOCCO)COC3)c(F)c2F)c1 [5/6],< 10,–,100 to 1000,–
[2H]C([2H])([2H])Oc1ccccc1-c1c(F)c(F)c(NC(=O)C2=C(C(=O)NOC)CCC2)c(F)c1F [4/26],< 1,< 100,–,–
[2H]c1c([2H])c(F)c([2H])c(-c2c(F)c(F)c(NC(=O)C3=C(C(=O)NOC([2H])([2H])[2H])COC3)c(F)c2F)c1[2H] [5/2],< 1,–,100 to 1000,–
[2H]C([2H])([2H])Oc1cccc(-c2cc(F)c(NC(=O)C3=C(C(=O)NOC)CCC3)c(C#N)c2)c1 [8/3],< 10,–,1000 to 10000,–
[2H]C([2H])([2H])Oc1ccccc1-c1c(F)c(F)c(NC(=O)C2=C(C(=O)NOC)COC2)c(F)c1F [5/11],–,< 100,–,–
"[2H]C([2H])([2H])Oc1cccc(-c2c(F)c(F)c(NC(=O)c3ncsc3C(=O)NOC)c(F)c2F)c1 [Example 16-1, N5-methoxy-N4-(2,3,5,6-tetrafluoro-3′-(methoxy-d3)-[1,1′-biphenyl]-4-yl)thiazole-4,5-dicarboxamide]",–,< 100,–,–
[2H]C([2H])([2H])Oc1cccc(-c2ccc(NC(=O)C3=C(C(=O)NS(C)(=O)=O)CCC3)c(F)c2)c1 [1/11],–,–,100 to 1000,–
[2H]C([2H])([2H])Oc1cccc(-c2ccc(NC(=O)C3=C(C(=O)NOC)CCC3)n3ccnc23)c1 [4/8],–,> 10000,–,–
[2H]C([2H])([2H])ONC(=O)C1=C(C(=O)Nc2c(F)c(F)c(-c3ccccc3OC([2H])([2H])[2H])c(F)c2F)COC1 [5/10],–,< 100,–,–
"[2H]C([2H])([2H])Oc1cccc(-c2c(F)c(F)c(NC(=O)c3scnc3C(=O)NOC)c(F)c2F)c1 [Example 16-2, N4-methoxy-N5-(2,3,5,6-tetrafluoro-3′-(methoxy-d3)-[1,1′-biphenyl]-4-yl)thiazole-4,5-dicarboxamide]",–,–,100 to 1000,–
[2H]C([2H])([2H])ONC(=O)C1=C(C(=O)Nc2c(F)c(F)c(-c3cc(F)cc(OC([2H])([2H])[2H])c3)c(F)c2F)COC1 [5/16],–,< 100,–,–
[2H]C([2H])([2H])Oc1ccccc1-c1c(F)c(F)c(NC(=O)C2=C(C(=O)NS(C)(=O)=O)CCC2)c(F)c1F [1/9],–,< 100,–,–
[2H]C([2H])([2H])ONC(=O)C1=C(C(=O)Nc2c(F)cc(-c3cccc(OC([2H])([2H])[2H])c3)cc2F)CCC1 [4/4],< 10,–,–,–
[2H]C([2H])([2H])Oc1cccc(-c2c(F)c(F)c(NC(=O)c3sc(F)cc3C(=O)NOC)c(F)c2F)c1 [16/3],–,< 100,–,–
[2H]C([2H])([2H])Oc1cccc(-c2ccc(NC(=O)C3=C(C(=O)NOCCO)CCC3)c(F)c2)c1 [5/7],–,> 10000,–,–
[2H]C([2H])([2H])Oc1cccc(-c2c(F)c(F)c(NC(=O)c3cscc3C(=O)NS(C)(=O)=O)c(F)c2F)c1 [1/14],> 50,–,–,–
